Results as given in PubChem BioAssay AID1259407 (Chemical Carcinogenesis Research Information System (CCRIS), 2018).
Active and inactive are the calls of the source. The rule behind the calls is not given here.

Tested on: CCRIS mutagenicity, Ames/micronucleus/aberration tests
Test: CCRIS mutagenicity studies
[1] = Test System: AMES SALMONELLA TYPHIMURIUM, Strain/Indicator: TA98, Metabolic Activation: NONE, Method: PREINCUBATION
[2] = Test System: AMES SALMONELLA TYPHIMURIUM, Strain/Indicator: TA100, Metabolic Activation: NONE, Method: PREINCUBATION
[3] = Test System: AMES SALMONELLA TYPHIMURIUM, Strain/Indicator: TA100, Metabolic Activation: NONE, Method: STANDARD PLATE
[4] = Test System: AMES SALMONELLA TYPHIMURIUM, Strain/Indicator: TA98, Metabolic Activation: NONE, Method: STANDARD PLATE

## c1cc2c3c(c4c(ccc5ccccc54)cc3c1)C1=C2O1
Test System: CHINESE HAMSTER V-79, Strain/Indicator: V-79/6-THIOGUANINE, Metabolic Activation: NONE, Method: SUSPENSION/PLATE
  mutagenic call: active; positive

## COc1c(O)cc2oc(-c3ccc(O)cc3)cc(=O)c2c1O
[1]
  mutagenic call: inactive; negative
Test System: AMES SALMONELLA TYPHIMURIUM, Strain/Indicator: TA98, Metabolic Activation: RAT LIVER S-9, SODIUM BARBITAL AND BETA-NAPHTHAFLAVONE, Method: PREINCUBATION
  mutagenic call: inactive; negative
[2]
  mutagenic call: inactive; negative
Test System: AMES SALMONELLA TYPHIMURIUM, Strain/Indicator: TA100, Metabolic Activation: RAT LIVER S-9, SODIUM BARBITAL AND BETA-NAPHTHAFLAVONE, Method: PREINCUBATION
  mutagenic call: inactive; negative

## CCCCOc1cc(Cl)ccc1C(=O)NOC(C)=O
[3]
  mutagenic call: active; positive
Test System: AMES SALMONELLA TYPHIMURIUM, Strain/Indicator: TA100, Metabolic Activation: RAT, S-9, AROCLOR, Method: STANDARD PLATE
  mutagenic call: active; positive

## Nc1ccc(Cl)cc1N
End Point: IN VITRO CHROMOSOMAL ABERRATIONS, Test System: CHL CELLS, Metabolic Activation: NONE
  mutagenic call: active; positive (structural changes)
End Point: IN VITRO CHROMOSOMAL ABERRATIONS, Test System: CHL CELLS, Metabolic Activation: RAT, LIVER, S-9, SODIUM PHENOBARBITAL AND 5,6-BENZOFLAVONE
  mutagenic call: active; positive (structural changes)
End Point: IN VITRO CHROMOSOMAL ABERRATIONS, Test System: CHO-LB CELLS, Metabolic Activation: NONE
  mutagenic call: active; positive
End Point: IN VITRO CHROMOSOMAL ABERRATIONS, Test System: CHO-LB CELLS, Metabolic Activation: RAT, LIVER, S-9, AROCLOR 1254
  mutagenic call: inactive; negative
End Point: IN VIVO MICRONUCLEUS, Test System: HEPATOCYTES, Species: RAT, Strain/Sex: FISHER 344 OR SD/MALE, Route: ORAL OR IP
  mutagenic call: inactive; negative
End Point: IN VIVO MICRONUCLEUS, Test System: PERIPHERAL BLOOD RETICULOCYTES, Species: RAT, Strain/Sex: FISHER 344 OR SD/MALE, Route: ORAL OR IP
  mutagenic call: inactive; negative
Test System: AMES SALMONELLA TYPHIMURIUM, Strain/Indicator: TA97, Metabolic Activation: HAMSTER, LIVER, S-9, AROCLOR 1254 (10%), Method: PREINCUBATION
  mutagenic call: active; positive
Test System: AMES SALMONELLA TYPHIMURIUM, Strain/Indicator: TA97, Metabolic Activation: NONE, Method: PREINCUBATION
  mutagenic call: inactive; negative
Test System: AMES SALMONELLA TYPHIMURIUM, Strain/Indicator: TA97, Metabolic Activation: RAT, LIVER, S-9, AROCLOR 1254 (10%), Method: PREINCUBATION
  mutagenic call: active; positive
Test System: AMES SALMONELLA TYPHIMURIUM, Strain/Indicator: TA98, Metabolic Activation: HAMSTER, LIVER, S-9, AROCLOR 1254 (10%), Method: PREINCUBATION
  mutagenic call: active; positive
[1]
  mutagenic call: inactive; negative
Test System: AMES SALMONELLA TYPHIMURIUM, Strain/Indicator: TA98, Metabolic Activation: RAT, LIVER, S-9, AROCLOR 1254 (10%), Method: PREINCUBATION
  mutagenic call: active; positive
Test System: AMES SALMONELLA TYPHIMURIUM, Strain/Indicator: TA98, Metabolic Activation: RAT, LIVER, S-9, PCB, Method: PREINCUBATION
  mutagenic call: active; positive
Test System: AMES SALMONELLA TYPHIMURIUM, Strain/Indicator: TA100, Metabolic Activation: HAMSTER, LIVER, S-9, AROCLOR 1254 (10%), Method: PREINCUBATION
  mutagenic call: active; positive
[2]
  mutagenic call: inactive; negative
Test System: AMES SALMONELLA TYPHIMURIUM, Strain/Indicator: TA100, Metabolic Activation: RAT, LIVER, S-9, AROCLOR 1254 (10%), Method: PREINCUBATION
  mutagenic call: active; positive
Test System: AMES SALMONELLA TYPHIMURIUM, Strain/Indicator: TA100, Metabolic Activation: RAT, LIVER, S-9, PCB, Method: PREINCUBATION
  mutagenic call: active; positive
Test System: AMES SALMONELLA TYPHIMURIUM, Strain/Indicator: TA1535, Metabolic Activation: HAMSTER, LIVER, S-9, AROCLOR 1254 (10%), Method: PREINCUBATION
  mutagenic call: inactive; negative
Test System: AMES SALMONELLA TYPHIMURIUM, Strain/Indicator: TA1535, Metabolic Activation: NONE, Method: PREINCUBATION
  mutagenic call: inactive; negative
Test System: AMES SALMONELLA TYPHIMURIUM, Strain/Indicator: TA1535, Metabolic Activation: RAT, LIVER, S-9, AROCLOR 1254 (10%), Method: PREINCUBATION
  mutagenic call: inactive; negative
Test System: E. COLI, Strain/Indicator: WP2 UVRA, Metabolic Activation: HAMSTER, LIVER, S-9, AROCLOR 1254, Method: STANDARD PLATE
  mutagenic call: inactive; negative
Test System: E. COLI, Strain/Indicator: WP2 UVRA, Metabolic Activation: MOUSE, LIVER, S-9, AROCLOR 1254, Method: STANDARD PLATE
  mutagenic call: inactive; negative
Test System: E. COLI, Strain/Indicator: WP2 UVRA, Metabolic Activation: MOUSE, LIVER, S-9, Method: STANDARD PLATE
  mutagenic call: inactive; negative
Test System: E. COLI, Strain/Indicator: WP2 UVRA, Metabolic Activation: NONE, Method: STANDARD PLATE
  mutagenic call: inactive; negative
Test System: E. COLI, Strain/Indicator: WP2 UVRA, Metabolic Activation: RAT, LIVER, S-9, Method: STANDARD PLATE
  mutagenic call: inactive; negative
Test System: UDS RODENT HEPATOCYTES, Strain/Indicator: THY INCORP (NON-S-PHASE), Metabolic Activation: NONE, Method: AUTORADIOGRAPHY
  mutagenic call: active; positive

## COCCCN
Test System: AMES SALMONELLA TYPHIMURIUM, Strain/Indicator: TA98, Metabolic Activation: HAMSTER, LIVER, S-9, AROCLOR 1254, Method: STANDARD PLATE
  mutagenic call: inactive; negative
[4]
  mutagenic call: inactive; negative
Test System: AMES SALMONELLA TYPHIMURIUM, Strain/Indicator: TA98, Metabolic Activation: RAT, LIVER, S-9, AROCLOR 1254, Method: STANDARD PLATE
  mutagenic call: inactive; negative
Test System: AMES SALMONELLA TYPHIMURIUM, Strain/Indicator: TA100, Metabolic Activation: HAMSTER, LIVER, S-9, AROCLOR 1254, Method: STANDARD PLATE
  mutagenic call: inactive; negative
[3]
  mutagenic call: inactive; negative
Test System: AMES SALMONELLA TYPHIMURIUM, Strain/Indicator: TA100, Metabolic Activation: RAT, LIVER, S-9, AROCLOR 1254, Method: STANDARD PLATE
  mutagenic call: inactive; negative
Test System: AMES SALMONELLA TYPHIMURIUM, Strain/Indicator: TA1535, Metabolic Activation: HAMSTER, LIVER, S-9, AROCLOR 1254, Method: STANDARD PLATE
  mutagenic call: inactive; negative
Test System: AMES SALMONELLA TYPHIMURIUM, Strain/Indicator: TA1535, Metabolic Activation: NONE, Method: STANDARD PLATE
  mutagenic call: inactive; negative
Test System: AMES SALMONELLA TYPHIMURIUM, Strain/Indicator: TA1535, Metabolic Activation: RAT, LIVER, S-9, AROCLOR 1254, Method: STANDARD PLATE
  mutagenic call: inactive; negative
Test System: AMES SALMONELLA TYPHIMURIUM, Strain/Indicator: TA1537, Metabolic Activation: HAMSTER, LIVER, S-9, AROCLOR 1254, Method: STANDARD PLATE
  mutagenic call: inactive; negative
Test System: AMES SALMONELLA TYPHIMURIUM, Strain/Indicator: TA1537, Metabolic Activation: NONE, Method: STANDARD PLATE
  mutagenic call: inactive; negative
Test System: AMES SALMONELLA TYPHIMURIUM, Strain/Indicator: TA1537, Metabolic Activation: RAT, LIVER, S-9, AROCLOR 1254, Method: STANDARD PLATE
  mutagenic call: inactive; negative
Test System: AMES SALMONELLA TYPHIMURIUM, Strain/Indicator: TA1538, Metabolic Activation: HAMSTER, LIVER, S-9, AROCLOR 1254, Method: STANDARD PLATE
  mutagenic call: inactive; negative
Test System: AMES SALMONELLA TYPHIMURIUM, Strain/Indicator: TA1538, Metabolic Activation: NONE, Method: STANDARD PLATE
  mutagenic call: inactive; negative
Test System: AMES SALMONELLA TYPHIMURIUM, Strain/Indicator: TA1538, Metabolic Activation: RAT, LIVER, S-9, AROCLOR 1254, Method: STANDARD PLATE
  mutagenic call: inactive; negative
Test System: Mouse lymphoma, Strain/Indicator: L5178Y (tk+/tk-), Metabolic Activation: None, Method: Suspension/plate
  mutagenic call: inactive; negative
Test System: Mouse lymphoma, Strain/Indicator: L5178Y (tk+/tk-), Metabolic Activation: Rat, Liver, S-9, Aroclor 1254, Method: Suspension/plate
  mutagenic call: inactive; negative

## O=[N+]([O-])c1ccc2c(c1)-c1cccc3cccc-2c13
[4]
  mutagenic call: active; positive
